Results: paper PMC9684580, “The BDSF quorum sensing receptor RpfR regulates Bep exopolysaccharide synthesis in Burkholderia cenocepacia via interaction with the transcriptional regulator BerB” (NPJ Biofilms and Microbiomes, 2022)

Legend:
[1] = target: T1, RpfR (Burkholderia cenocepacia, UniProt B4EKM4); experiment: PDE assay, products by anion-exchange FPLC (ResourceQ); assay type: biochemical; details: 2 uM enzyme, 100 uM substrate, 50 mM Tris-Cl pH 7.8, 500 mM NaCl, 2 mM MgCl2, 37 °C, 180 min; product pGpG
T1 construct: gene BCAM0580; full-length rpfR in pQE-32 (BamHI/HindIII; vector with N-terminal His tag), expressed in E. coli M15[pREP4], purified

[2] = target: T1, RpfR; experiment: DGC assay, products by anion-exchange FPLC (ResourceQ); assay type: biochemical; details: 2 uM enzyme, 100 uM substrate, 50 mM Tris-Cl pH 7.8, 500 mM NaCl, 2 mM MgCl2, 37 °C, 180 min; product pGpG

T1 sequence (B4EKM4 entry or part of it): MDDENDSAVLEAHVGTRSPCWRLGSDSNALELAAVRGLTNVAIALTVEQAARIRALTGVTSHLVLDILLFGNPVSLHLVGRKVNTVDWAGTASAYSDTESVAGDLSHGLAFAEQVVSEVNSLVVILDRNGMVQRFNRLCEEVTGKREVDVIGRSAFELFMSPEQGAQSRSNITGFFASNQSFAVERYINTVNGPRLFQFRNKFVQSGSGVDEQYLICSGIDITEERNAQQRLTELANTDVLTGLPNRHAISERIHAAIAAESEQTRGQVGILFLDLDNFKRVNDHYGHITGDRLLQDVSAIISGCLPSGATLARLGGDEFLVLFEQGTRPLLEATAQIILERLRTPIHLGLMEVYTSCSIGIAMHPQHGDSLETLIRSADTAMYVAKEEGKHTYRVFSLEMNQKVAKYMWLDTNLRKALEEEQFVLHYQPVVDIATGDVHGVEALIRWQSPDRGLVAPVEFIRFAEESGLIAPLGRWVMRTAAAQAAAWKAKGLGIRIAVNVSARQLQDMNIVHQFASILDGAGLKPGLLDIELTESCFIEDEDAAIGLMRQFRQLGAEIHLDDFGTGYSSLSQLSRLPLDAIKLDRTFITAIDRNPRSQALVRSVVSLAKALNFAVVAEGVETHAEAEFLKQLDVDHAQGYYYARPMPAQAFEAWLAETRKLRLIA

| Structure (SMILES) | PDE assay, products by anion-exchange FPLC (ResourceQ) [1] | DGC assay, products by anion-exchange FPLC (ResourceQ) [2] |
| --- | --- | --- |
| Nc1nc2c(ncn2[C@@H]2O[C@@H]3COP(=O)(O)O[C@H]4[C@@H](O)[C@H](n5cnc6c(=O)[nH]c(N)nc65)O[C@@H]4COP(=O)(O)O[C@H]3[C@H]2O)c(=O)[nH]1 [c-di-GMP] | Wild-type RpfR metabolized GTP as well as c-di-GMP, generating pGpG from both substrates | – |
| Nc1nc2c(ncn2[C@@H]2O[C@H](COP(=O)(O)OP(=O)(O)OP(=O)(O)O)[C@@H](O)[C@H]2O)c(=O)[nH]1 [GTP] | – | Wild-type RpfR metabolized GTP as well as c-di-GMP, generating pGpG from both substrates |
